Data published in patent US6403788B1, “Non-genotoxic metalloporphyrins as synthetic catalytic scavengers of reactive oxygen species” (Eukarion, Inc., priority 2000, dated 2002).

Assays:
[1] = system: ΦX 174 DNA Plasmid (Form I); assay: Cleavage of ΦX 174 DNA plasmid (form I), activation with ascorbate in the presence of air; format: biochemical, phage ΦX 174; settings: DNA 3.5 nM, Asc. 1 mM
From the text: The DNA cleavage activity was quantified in terms of number of single-strand breaks per DNA molecule according to the equation […], Io=% form I (supercoiled DNA) in the DNA control, and I=% form I in the experiment (see Bernadou et al, Biochemistry, 28: 7268-7275, (1989)). This assay is very sensitive and is able to detect very low levels of DNA activity. S values less than S=1.0 are indicative of very low DNA cleavage activity when the compounds are at a concentration of equal to or less than 1000 nM and KHSO5 is present at a concentration of equal to or less than 100 μM.
ΦX 174 DNA digestion conditions for standard experiments were as follows: commercially available DNA was diluted to 50 μg/mL in phosphate buffer (10 mM, pH 7.5). The reaction involved 5 μL of ΦX 174 DNA (50 μg/mL, 74.8 μM in base pairs), 5 μL of 40 mM phosphate buffer, pH 7.5 with 400 mM NaCl, 5 μL of metalloporphyrin in double-distilled water or 5 μL of iron-bleomycin complex in double-distilled water, and 5 μL of KHSO5 or 5 μL of H2O2 or 5 μL of ascorbate in double-distilled water. Preincubation of DNA and metalloporphyrins or iron-bleomycin complex was performed for about 15 min. The digestion time in the presence of KHSO5 was 10 min, of H2O2 was 30 min and of ascorbate was 30 min at 20° C. DNA cleavage was monitored by agarose gel electrophoresis. Reactions with KHSO5 were first quenched by 2 μL of 100 mM Hepes buffer, pH 8. In all cases, reactions were quenched by 5 μL of a stopping reagent. The stopping reagent consisted of 250 mM Hepes buffer, pH 7.4, containing 75% glycerol and 0.05% bromophenol blue. Reaction mixtures were then run in 0.8% agarose slab horizontal gel containing ethidium bromide […], at constant current (25 mA for 15h), in 89 mM Tris-borate buffer and 2.5 mM EDTA pH 8.3. Bands were located by WV light (254 nm), photographed, and quantitated by microdensitometry. The correction coefficient 1.47±0.30 was used for decreased stainability of form I DNA vs form II DNA and form III DNA.

[2] = Superoxide dismutase activity, xanthine-xanthine oxidase / cytochrome C; format: biochemical; settings: reciprocal of IC50; xanthine 60 μM, xanthine oxidase 0.009 units/ml, cytochrome C 27.8 μM
Description: Superoxide Dismutase Activity was measured by incubating the compound with a superoxide generating system (Xanthine, 60 μM-Xanthine Oxidase, 0.009 units/ml) and a detector molecule (Cytochrome C, 27.8 μM). Upon reacting with a molecule of superoxide, Cytochrome C undergoes a spectrum-shift which can be detected as an increase in absorbance at 550 nm. In this assay procedure, the reactant concentrations were adjusted to give a reaction rate close to 0.1 AU/min. at 2-3 min. after the reaction began. Addition of compounds with Superoxide Dismutase activity reduce the rate of absorbance change. Compounds were assayed at several concentrations (typically at 0, 2, 4, and 8 μM) and the resulting rates were graphed and fitted to a linear regression formula. The linear regression formula was then solved to determine the concentration of compound required to reduce the reaction rate to 50% of the rate without compound present (IC50).

[3] = Peroxidase activity, ABTS oxidation; format: biochemical; settings: 10 μM compound, 200 μM hydrogen peroxide, 500 μM ABTS, pH 8.1, 740 nm
Description: Peroxidase activity was measured by incubating 10 μM compound, 200 μM hydrogen peroxide and 500 μM ABTS in 50 mM sodium phosphate, pH 8.1. The rate of ABTS oxidation was monitored at 740 nm and initial rates (change in absorbance per min.) determined.

CC[NH+](CC)CCNS(=O)(=O)c1c(C)cc(C)c(C2=C3C=CC4=[N+]3[Fe-]35[n]6c2ccc6C(c2c(C)cc(C)c(S(=O)(=O)NCC[NH+](CC)CC)c2C)=C2C=CC(=[N+]23)C(c2c(C)cc(C)c(S(=O)(=O)NCC[NH+](CC)CC)c2C)=c2ccc([n]25)=C4c2c(C)cc(C)c(S(=O)(=O)NCC[NH+](CC)CC)c2C)c1C.[Cl-].[Cl-].[Cl-].[Cl-].[Cl-] [Structural Formula V, meso-tetrakis[3-(N-(2-(N,N-diethylammonio)ethyl)aminosulfonyl)-2,4,6-trimethylphenyl]porphyrinato diaqua-iron (III) pentachloride]
S (single-strand breaks per DNA molecule) ([1]; compound 10 nM): 0.11 SSBs | form % I ([1]; compound 10 nM): 87% | form % II ([1]; compound 10 nM): 13% | form % III ([1]; compound 10 nM): 0% | S (single-strand breaks per DNA molecule) ([1]; compound 100 nM): 0.34 SSBs | form % I ([1]; compound 100 nM): 75% | form % II ([1]; compound 100 nM): 25% | form % III ([1]; compound 100 nM): 0% | S (single-strand breaks per DNA molecule) ([1]; compound 1 μM): 2.76 SSBs | form % I ([1]; compound 1 μM): 29% | form % II ([1]; compound 1 μM): 71% | form % III ([1]; compound 1 μM): 0% | Cyt C SOD 1/(IC50, μM) [2]: 0.067 µM⁻¹ | PEROXIDASE Initial Rate [3]: 0.0443 change in absorbance per min.
